Laboratory results published in US4436751A, “Nitrobenzyl monates antibacterial compounds” (Beecham Group Limited, priority 1980, dated 1984).
≈ marks a conversion by molar mass, not a printed value. Read-outs that look alike come from different tables or passages of the source.

How the values were obtained:
Assay type in all cases: cell-based
[1] = test system: M. suipneumoniae OCD 1; test: Anti-mycoplasmal MIC in vitro, Friis broth agarose (Table 1); conditions: Mesomycoplasma hyopneumoniae, OCD1, 144 h
[2] = test system: M. suipneumoniae JF 435; test: as above; conditions: Mesomycoplasma hyopneumoniae, JF435, 144 h
[3] = test system: M. bovis RCTC 10131; test: microbe, parasite or virus in culture; conditions: RCTC10131, 144 h
[4] = test system: M. suipneumoniae ATCC 25095; test: Anti-mycoplasmal MIC in vitro, Friis broth agarose (Table 1); conditions: Mesomycoplasma hyopneumoniae, ATCC25095, 144 h
[5] = test system: M. suipneumoniae PW/C/210; test: as above; conditions: Mesomycoplasma hyopneumoniae, 144 h
[6] = test system: M. suipneumoniae J2206/183b; test: as above; conditions: Mesomycoplasma hyopneumoniae, 144 h
[7] = test system: M. suipneumoniae LABER; test: as above; conditions: Mesomycoplasma hyopneumoniae, 144 h
[8] = test system: M. suipneumoniae Str. 11; test: as above; conditions: Mesomycoplasma hyopneumoniae, STR.11, 144 h
[9] = test system: M. suipneumoniae NCTC 10110; test: as above; conditions: Mesomycoplasma hyopneumoniae, NCTC10110, 144 h
[10] = test system: M. suipneumoniae TAM 6N; test: as above; conditions: Mesomycoplasma hyopneumoniae, TAM6N, 144 h
[11] = test system: Strep. suis (group D) SPS11; test: Veterinary bacteria MIC, Diagnostic Sensitivity Test Agar (Table 2); conditions: Streptococcus suis, 18 h
Experimental: The values were determined using a two fold serial dilutions in Diagnostic Sensitivity Test Agar with an inoculum of 10^4 organisms and incubation for 18 hours at 37° C.

[12] = test system: M. dispar RCTC 10125; test: Anti-mycoplasmal MIC in vitro, Friis broth agarose (Table 1); conditions: 144 h
[13] = test system: M. hyorhinis ATCC 25021; test: as above; conditions: Mesomycoplasma hyorhinis, ATCC25021, 144 h
[14] = test system: M. suipneumoniae HR(2); test: as above; conditions: Mesomycoplasma hyopneumoniae, 144 h
[15] = test system: Ps. aeruginosa NCTC 10662; test: Human bacteria MIC, nutrient agar with chocolated horse blood (Table 3); conditions: Pseudomonas aeruginosa
Experimental: (§1) The values were determined by serial dilutions in nutrient agar with 5% chocolated horse blood after incubations for 18 hours at 37° C.

[16] = test system: Strep. faecalis 1; test: as above
Experimental: as §1

[17] = test system: P. mirabilis 889; test: as above
Experimental: as §1

[18] = test system: Staph. aureus Russell; test: as above; conditions: Staphylococcus aureus
Experimental: as §1

[19] = test system: Strep. pyogenes R80/421-A; test: as above; conditions: Streptococcus pyogenes, R80/421A, 18 h
Experimental: as §1

[20] = test system: Haemophilus influenzae Q1; test: as above
Experimental: as §1

[21] = test system: Corynebacterium xerosis 9755; test: as above
Experimental: as §1

[22] = test system: K. aerogenes A; test: as above; conditions: Klebsiella aerogenes
Experimental: as §1

[23] = test system: Sarcina lutea 8340; test: as above
Experimental: as §1

[24] = test system: E. Coli NCTC 10418; test: as above; conditions: Escherichia coli
Experimental: as §1

[25] = test system: Bacillus subtilis 6633; test: as above
Experimental: as §1

[26] = test system: Staph. aureus W2827; test: as above; conditions: Staphylococcus aureus
Experimental: as §1

[27] = test system: Staph. aureus Oxford; test: as above; conditions: Staphylococcus aureus
Experimental: as §1

[28] = test system: Pasteurella multocida 1633; test: as above
Experimental: as §1

Question: What does the source list for C/C(=C\C(=O)OCc1ccc([N+](=O)[O-])cc1)CC1OCC(CC2OC2C(C)C(C)O)C(O)C1O (centres unmarked) [Example 1, p-nitrobenzyl monate A]?
Answer: MIC ([1]; M. suipneumoniae OCD 1, in vitro, 6 days 37° C., read-out: MIC): 0.1 mg/L (≈ 0.209 µM); MIC ([2]; M. suipneumoniae JF 435, in vitro, 6 days 37° C., read-out: MIC): 0.1 mg/L (≈ 0.209 µM); MIC [3]: < 0.01 mg/L; MIC [4]: 0.05 mg/L (≈ 0.104 µM); MIC [5]: 0.05 mg/L (≈ 0.104 µM); MIC ([6]; M. suipneumoniae J2206/183b, in vitro, 6 days 37° C., read-out: MIC): 0.1 mg/L (≈ 0.209 µM); MIC [7]: 0.05 mg/L (≈ 0.104 µM); MIC [8]: 0.05 mg/L (≈ 0.104 µM); MIC [9]: 0.05 mg/L (≈ 0.104 µM); MIC ([10]; M. suipneumoniae TAM 6N, in vitro, 6 days 37° C., read-out: MIC): 0.1 mg/L (≈ 0.209 µM); MIC [11]: 1.25 mg/L (≈ 2.61 µM); MIC [12]: 0.025 mg/L (≈ 0.0521 µM); MIC [13]: 0.05 mg/L (≈ 0.104 µM); MIC ([14]; M. suipneumoniae HR(2), in vitro, 6 days 37° C., read-out: MIC): 0.1 mg/L (≈ 0.209 µM); MIC ([15]; NCTC10662, Ps. aeruginosa NCTC 10662, nutrient agar 5% chocolated horse blood, 18 hours 37° C., read-out: MIC): > 100 mg/L; MIC ([16]; Enterococcus faecalis, Strep. faecalis 1, nutrient agar 5% chocolated horse blood, 18 hours 37° C., read-out: MIC): 50 mg/L (≈ 104 µM); MIC ([17]; Proteus mirabilis, P. mirabilis 889, nutrient agar 5% chocolated horse blood, 18 hours 37° C., read-out: MIC): 100 mg/L (≈ 209 µM); MIC ([18]; Staph. aureus Russell, nutrient agar 5% chocolated horse blood, 18 hours 37° C., read-out: MIC): 0.5 mg/L (≈ 1.04 µM); MIC [19]: 0.25 mg/L (≈ 0.521 µM); MIC ([20]; Haemophilus influenzae Q1, nutrient agar 5% chocolated horse blood, 18 hours 37° C., read-out: MIC): 0.1 mg/L (≈ 0.209 µM); MIC ([21]; Corynebacterium xerosis 9755, nutrient agar 5% chocolated horse blood, 18 hours 37° C., read-out: MIC): > 100 mg/L; MIC ([22]; K. aerogenes A, nutrient agar 5% chocolated horse blood, 18 hours 37° C., read-out: MIC): 100 mg/L (≈ 209 µM); MIC ([23]; Micrococcus luteus, Sarcina lutea 8340, nutrient agar 5% chocolated horse blood, 18 hours 37° C., read-out: MIC): > 100 mg/L; MIC ([24]; NCTC10418, E. coli NCTC 10418, nutrient agar 5% chocolated horse blood, 18 hours 37° C., read-out: MIC): 25 mg/L (≈ 52.1 µM); MIC ([25]; Bacillus subtilis 6633, nutrient agar 5% chocolated horse blood, 18 hours 37° C., read-out: MIC): 0.5 mg/L (≈ 1.04 µM); MIC ([26]; Staph. aureus W2827, nutrient agar 5% chocolated horse blood, 18 hours 37° C., read-out: MIC): 0.5 mg/L (≈ 1.04 µM); MIC ([27]; Staph. aureus Oxford, nutrient agar 5% chocolated horse blood, 18 hours 37° C., read-out: MIC): 0.5 mg/L (≈ 1.04 µM); MIC ([28]; Pasteurella multocida 1633, nutrient agar 5% chocolated horse blood, 18 hours 37° C., read-out: MIC): 0.5 mg/L (≈ 1.04 µM)

Question: Which MIC [1] does the source give for C/C(=C\C(=O)OCc1cc([N+](=O)[O-])cc([N+](=O)[O-])c1)CC1OCC(CC2OC2C(C)C(C)O)C(O)C1O (centres unmarked) [Example 6, 3,5-dinitrobenzyl monate A] here?
Answer: 0.05 mg/L (≈ 0.0953 µM)

Question: And the MIC [2]?
Answer: 0.05 mg/L (≈ 0.0953 µM)

Question: What about the MIC [3] of the same molecule?
Answer: ≤ 0.01 mg/L

Question: And the MIC [4]?
Answer: 0.05 mg/L (≈ 0.0953 µM)

Question: And the MIC [5]?
Answer: 0.025 mg/L (≈ 0.0477 µM)

Question: And the MIC ([6]; J2206/183B)?
Answer: 0.05 mg/L (≈ 0.0953 µM)

Question: What about the MIC [7] of the same molecule?
Answer: 0.025 mg/L (≈ 0.0477 µM)

Question: And the MIC [8]?
Answer: 0.025 mg/L (≈ 0.0477 µM)

Question: What about the MIC [9] of the same molecule?
Answer: 0.05 mg/L (≈ 0.0953 µM)

Question: And the MIC [10]?
Answer: 0.05 mg/L (≈ 0.0953 µM)

Question: What about the MIC [11] of the same molecule?
Answer: 20 mg/L (≈ 38.1 µM)

Question: What about the MIC [12] of the same molecule?
Answer: ≤ 0.01 mg/L

Question: And the MIC [13]?
Answer: 0.025 mg/L (≈ 0.0477 µM)

Question: And the MIC [14]?
Answer: 0.05 mg/L (≈ 0.0953 µM)

Question: And the MIC ([15]; NCTC10662, 18 h)?
Answer: > 100 mg/L

Question: What about the MIC ([16]; Enterococcus faecalis, 1, 18 h) of the same molecule?
Answer: > 100 mg/L

Question: What about the MIC ([17]; Proteus mirabilis, 889, 18 h) of the same molecule?
Answer: 100 mg/L (≈ 191 µM)

Question: And the MIC ([18]; 18 h)?
Answer: 1 mg/L (≈ 1.91 µM)

Question: And the MIC [19]?
Answer: 0.25 mg/L (≈ 0.477 µM)

Question: What about the MIC ([20]; Haemophilus influenzae, Q1, 18 h) of the same molecule?
Answer: 0.5 mg/L (≈ 0.953 µM)

Question: What about the MIC ([21]; Corynebacterium xerosis, 9755, 18 h) of the same molecule?
Answer: > 100 mg/L

Question: And the MIC ([22]; 18 h)?
Answer: 100 mg/L (≈ 191 µM)

Question: And the MIC ([23]; Micrococcus luteus, 8340, 18 h)?
Answer: > 100 mg/L

Question: What about the MIC ([24]; NCTC10418, 18 h) of the same molecule?
Answer: 100 mg/L (≈ 191 µM)

Question: What about the MIC ([25]; Bacillus subtilis, 6633, 18 h) of the same molecule?
Answer: 0.5 mg/L (≈ 0.953 µM)

Question: What about the MIC ([26]; W2827, 18 h) of the same molecule?
Answer: 1 mg/L (≈ 1.91 µM)

Question: And the MIC ([27]; 18 h)?
Answer: 0.5 mg/L (≈ 0.953 µM)

Question: What about the MIC ([28]; Pasteurella multocida, 1633, 18 h) of the same molecule?
Answer: 0.5 mg/L (≈ 0.953 µM)
